According to ChEMBL document CHEMBL1201862, “PubChem BioAssay data set” (2004):
Activity calls are given as the source filed them.

Assays:
Bcl-2-like protein 10 = biological target: T1, Bcl-2-like protein 10 (Homo sapiens, UniProt Q9HD36); assay: Biochemical TR3 FP assay of Bcl-B inhibitor potency, EC50 (AID 1243); format: functional
T1 sequence (Q9HD36 whole entry): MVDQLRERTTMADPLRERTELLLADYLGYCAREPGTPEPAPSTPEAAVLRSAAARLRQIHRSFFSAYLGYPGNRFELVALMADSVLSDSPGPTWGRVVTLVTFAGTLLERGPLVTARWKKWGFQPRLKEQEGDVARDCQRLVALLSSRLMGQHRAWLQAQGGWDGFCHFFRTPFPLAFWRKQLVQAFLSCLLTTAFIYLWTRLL

NS3 = NS3 (Hepatitis C virus, UniProt A3EZJ3); assay: PubChem AID 2173; parameters: species or system Hepacivirus hominis
NADPH oxidase 1 = biological target: T2, NADPH oxidase 1 (Homo sapiens, UniProt Q9Y5S8); format: functional, cell-based;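 also: Cell-based assay with luminescence read-out, IC50 derived from inhibitor dose-response curves; intracellular ROS from endogenous NOX1 in intact HT29 colon cancer cells; potency of inhibitors that lower the ROS luminescence signal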
T2 sequence (Q9Y5S8 whole entry): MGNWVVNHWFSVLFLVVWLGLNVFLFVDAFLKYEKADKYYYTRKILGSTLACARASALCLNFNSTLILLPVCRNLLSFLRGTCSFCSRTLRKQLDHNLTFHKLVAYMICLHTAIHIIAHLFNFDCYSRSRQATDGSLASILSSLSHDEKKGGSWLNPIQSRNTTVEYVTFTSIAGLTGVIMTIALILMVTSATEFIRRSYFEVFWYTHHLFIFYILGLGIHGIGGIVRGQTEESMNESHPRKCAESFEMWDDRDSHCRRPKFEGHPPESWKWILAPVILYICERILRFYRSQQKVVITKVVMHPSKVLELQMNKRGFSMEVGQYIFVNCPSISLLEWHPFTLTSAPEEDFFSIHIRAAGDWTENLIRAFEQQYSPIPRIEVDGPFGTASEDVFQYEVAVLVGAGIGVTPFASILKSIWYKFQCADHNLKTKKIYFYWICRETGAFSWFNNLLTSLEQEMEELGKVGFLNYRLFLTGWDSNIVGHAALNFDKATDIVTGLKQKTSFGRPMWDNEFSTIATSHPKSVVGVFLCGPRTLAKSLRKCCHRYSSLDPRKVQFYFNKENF

[1] = inhibitors of Bluetongue virus cytopathic effect, confirmation, arbovirus, BSR cells (AID 1250); format: functional;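 also: protection from viral cytopathic effect measured as cell viability by ATP luminescence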
Leucine aminopeptidase = biological target: T3, Leucine aminopeptidase (Plasmodium falciparum 3D7, UniProt Q8IL11); assay: P. falciparum M17LAP inhibitors, primary screen, biochemical, fluorogenic H-Leu-NHMec substrate, 1536-well (AID 1619); format: functional
T3 sequence (Q8IL11 whole entry): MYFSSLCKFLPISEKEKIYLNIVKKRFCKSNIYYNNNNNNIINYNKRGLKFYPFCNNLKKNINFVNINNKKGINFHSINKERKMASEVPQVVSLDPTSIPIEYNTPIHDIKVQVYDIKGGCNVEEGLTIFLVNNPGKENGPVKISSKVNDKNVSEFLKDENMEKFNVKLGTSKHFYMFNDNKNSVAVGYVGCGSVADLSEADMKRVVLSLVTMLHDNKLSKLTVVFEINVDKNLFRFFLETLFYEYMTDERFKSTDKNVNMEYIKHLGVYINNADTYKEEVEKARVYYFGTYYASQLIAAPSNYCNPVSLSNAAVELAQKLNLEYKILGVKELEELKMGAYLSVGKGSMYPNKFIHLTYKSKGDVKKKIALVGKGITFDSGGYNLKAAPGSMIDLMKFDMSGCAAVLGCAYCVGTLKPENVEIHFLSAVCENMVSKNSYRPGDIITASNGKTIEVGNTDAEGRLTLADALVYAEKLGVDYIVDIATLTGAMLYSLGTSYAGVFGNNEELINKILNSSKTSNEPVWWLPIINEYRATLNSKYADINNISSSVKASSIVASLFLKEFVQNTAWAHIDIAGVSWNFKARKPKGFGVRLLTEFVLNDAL

[2] = Counterscreen for IDE inhibitors: Luminescence-based cell-based high throughput dose response assay to identify compounds that are cytotoxic to HEK cells. [Related pubchem assays: 434962 (Primary screen (IDE inhibitors in singlicate)), 449730 (Counterscreen (Cytotoxicity in triplicate)), 435028 (Confirmation (IDE inhibitors in triplicate)) …; format: functional; settings: HEK293
Insulin-degrading enzyme = biological target: T4, Insulin-degrading enzyme (Homo sapiens, UniProt P14735); assay: Dose Response: Fluorescence polarization-based cell-based high throughput dose response assay for inhibitors of insulin-degrading enzyme (IDE). [Related pubchem assays: 434962 (Primary screen (IDE inhibitors in singlicate)), 449730 (Counterscreen (Cytotoxicity in triplicate)), 435028 (Confirmation (IDE inhibitors in triplicate)), 434984 (Summary …; format: functional
T4 sequence (P14735 whole entry): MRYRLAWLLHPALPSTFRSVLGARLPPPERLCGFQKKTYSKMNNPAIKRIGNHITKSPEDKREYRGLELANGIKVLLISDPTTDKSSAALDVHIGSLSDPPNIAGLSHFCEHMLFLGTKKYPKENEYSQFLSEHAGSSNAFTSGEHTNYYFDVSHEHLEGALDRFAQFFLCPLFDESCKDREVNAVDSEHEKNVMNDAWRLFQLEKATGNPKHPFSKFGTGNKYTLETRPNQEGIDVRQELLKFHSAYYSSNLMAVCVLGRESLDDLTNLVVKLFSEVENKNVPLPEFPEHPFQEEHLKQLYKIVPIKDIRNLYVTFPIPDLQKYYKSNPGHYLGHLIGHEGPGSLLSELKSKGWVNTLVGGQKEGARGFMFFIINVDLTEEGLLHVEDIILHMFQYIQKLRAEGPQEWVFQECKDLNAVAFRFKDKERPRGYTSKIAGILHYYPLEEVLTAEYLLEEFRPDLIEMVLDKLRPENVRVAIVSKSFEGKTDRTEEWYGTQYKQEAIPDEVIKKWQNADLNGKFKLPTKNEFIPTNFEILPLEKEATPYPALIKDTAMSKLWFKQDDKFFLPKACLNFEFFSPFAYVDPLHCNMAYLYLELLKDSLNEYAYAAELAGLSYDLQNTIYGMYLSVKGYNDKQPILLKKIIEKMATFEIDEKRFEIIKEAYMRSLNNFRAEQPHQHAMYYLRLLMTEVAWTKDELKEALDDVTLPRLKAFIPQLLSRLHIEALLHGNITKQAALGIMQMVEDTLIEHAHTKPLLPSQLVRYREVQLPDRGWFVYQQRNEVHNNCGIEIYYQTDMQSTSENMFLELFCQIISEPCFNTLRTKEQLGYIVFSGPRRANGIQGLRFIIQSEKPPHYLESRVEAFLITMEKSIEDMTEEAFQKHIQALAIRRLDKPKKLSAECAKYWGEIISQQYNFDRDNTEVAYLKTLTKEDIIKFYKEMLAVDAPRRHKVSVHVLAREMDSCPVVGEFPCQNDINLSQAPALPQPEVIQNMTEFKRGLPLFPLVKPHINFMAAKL

Cytochrome P450 2D6 = Cytochrome P450 2D6 (Homo sapiens, UniProt P10635);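 also: CYP2D6 member of a cytochrome P450 panel assay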
Cytochrome P450 2C19 = Cytochrome P450 2C19 (Homo sapiens, UniProt P33261); assay: Cytochrome panel assay with activity outcomes. Panel member name: p450-cyp2c19 Compounds with AC50 equal or less than 10 uM are considered active; format: functional; settings: read-out: AC50
[3] = biological target: Peroxisome proliferator-activated receptor gamma/Nuclear receptor coactivator 2 (Homo sapiens, UniProt P37231); format: functional;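 also: agonist potency for raising coactivator recruitment to the receptor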
[4] = biological target: Peroxisome proliferator-activated receptor gamma/Nuclear receptor coactivator 1 (Homo sapiens, UniProt P37231); format: functional;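 also: agonist potency as compounds enhance coactivator SRC-1 recruitment to PPARgamma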
[5] = biological target: Peroxisome proliferator-activated receptor gamma/Nuclear receptor coactivator 3 (Homo sapiens, UniProt P37231); format: functional;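 also: agonist potency for raising coactivator recruitment to the receptor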
Mucolipin-3 = biological target: T5, Mucolipin-3 (Homo sapiens, UniProt Q8TDD5); assay: Dose response cell-based high-throughput screening assay for agonists of the transient receptor potential channel ML3 (TRPML3). [Related pubchem assays: 1526, 1424, 1448 ]; format: functional
T5 sequence (Q8TDD5 whole entry): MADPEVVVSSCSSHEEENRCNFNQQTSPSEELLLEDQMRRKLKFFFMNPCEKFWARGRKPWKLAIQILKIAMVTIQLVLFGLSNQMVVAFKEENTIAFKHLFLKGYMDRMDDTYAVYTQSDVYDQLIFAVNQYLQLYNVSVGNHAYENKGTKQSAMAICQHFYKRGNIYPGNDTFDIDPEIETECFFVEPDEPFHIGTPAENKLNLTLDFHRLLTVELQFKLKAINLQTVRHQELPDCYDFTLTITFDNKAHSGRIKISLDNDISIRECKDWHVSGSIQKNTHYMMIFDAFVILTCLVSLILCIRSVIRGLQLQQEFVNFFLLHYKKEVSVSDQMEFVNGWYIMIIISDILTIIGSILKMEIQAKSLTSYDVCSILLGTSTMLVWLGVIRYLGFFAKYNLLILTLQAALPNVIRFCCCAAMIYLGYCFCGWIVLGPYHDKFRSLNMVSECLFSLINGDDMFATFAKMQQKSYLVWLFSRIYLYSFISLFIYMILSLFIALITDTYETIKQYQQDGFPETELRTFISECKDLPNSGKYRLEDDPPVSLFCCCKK

Ion channel NompC = Ion channel NompC (Danio rerio, UniProt Q7T1G6); assay: Fluorescence counterscreen assay for TRPML3 agonists: dose response cell-based high-throughput screening assay to identify agonists of the transient receptor potential channel N1 (TRPN1). [Related pubchem assays: 1526, 1424, 1448 ]; format: functional
Streptokinase A = biological target: T6, Streptokinase A (Streptococcus pyogenes serotype M1, UniProt P10520); assay: S. pyogenes streptokinase expression inhibitors, potency, dose response, plasminogen activation absorbance, OD405 (AID 1914); format: functional, Streptococcus pyogenes M1 GAS;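 also: secreted streptokinase activity via plasminogen activation per viability signal from cell pellet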
T6 sequence (P10520 whole entry): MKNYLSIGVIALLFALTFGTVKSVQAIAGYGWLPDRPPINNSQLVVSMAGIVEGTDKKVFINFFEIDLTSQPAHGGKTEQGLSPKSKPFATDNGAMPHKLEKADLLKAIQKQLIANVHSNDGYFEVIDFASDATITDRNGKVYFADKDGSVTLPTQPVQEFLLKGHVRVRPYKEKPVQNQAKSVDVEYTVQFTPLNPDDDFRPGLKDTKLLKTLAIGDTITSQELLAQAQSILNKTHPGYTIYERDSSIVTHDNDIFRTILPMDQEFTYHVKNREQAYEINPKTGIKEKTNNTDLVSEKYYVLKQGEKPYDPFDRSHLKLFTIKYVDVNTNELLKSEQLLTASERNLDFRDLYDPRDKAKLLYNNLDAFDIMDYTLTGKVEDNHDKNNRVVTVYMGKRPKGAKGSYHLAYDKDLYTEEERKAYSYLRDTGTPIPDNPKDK

[6] = tested on: Streptococcus sp. 'group A'; assay: growth inhibition of control SK(-) GAS strain, dose response, counter-screen for streptokinase expression inhibitor project, luminescence, kanamycin, BacTiterGlo, confirmation (AID 1900); format: functional, organism-based
[7] = inhibitors of firefly luciferase expression or activity, dose response, H4 neuroglioma cells, luminescence (AID 1990); format: functional, cell-based
Vero = assay: cells; format: functional; settings: Chlorocebus sabaeus
[8] = Luminescence Cell-Based Dose Confirmation HTS to Identify Inhibitors of Polyadenylation.; format: functional
[9] = inhibitors of SNCA 5'UTR-driven reporter translation, confirmation, H4 neuroglioma cells, luminescence (AID 1988); format: functional, cell-based
Streptococcus = assay: Group A Streptococcus viability loss, dose response, counter-screen for streptokinase expression inhibitor project, luminescence, BacTiterGlo (AID 1915); format: functional, organism-based;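 also: potency for reduction of bacterial viability or growth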
[10] = Luminescence Cell-Based Dose Response HTS to Identify Inhibitors of 5'UTR Stem-Loop Driven Prion Protein mRNA Translation in H4 Neuroglioblastoma Cells. [Related pubchem assays: 1827 (Project Summary), 1813 (Primary HTS)]; format: functional

Sequence of Peroxisome proliferator-activated receptor gamma/Nuclear receptor coactivator 3 (P37231 whole entry): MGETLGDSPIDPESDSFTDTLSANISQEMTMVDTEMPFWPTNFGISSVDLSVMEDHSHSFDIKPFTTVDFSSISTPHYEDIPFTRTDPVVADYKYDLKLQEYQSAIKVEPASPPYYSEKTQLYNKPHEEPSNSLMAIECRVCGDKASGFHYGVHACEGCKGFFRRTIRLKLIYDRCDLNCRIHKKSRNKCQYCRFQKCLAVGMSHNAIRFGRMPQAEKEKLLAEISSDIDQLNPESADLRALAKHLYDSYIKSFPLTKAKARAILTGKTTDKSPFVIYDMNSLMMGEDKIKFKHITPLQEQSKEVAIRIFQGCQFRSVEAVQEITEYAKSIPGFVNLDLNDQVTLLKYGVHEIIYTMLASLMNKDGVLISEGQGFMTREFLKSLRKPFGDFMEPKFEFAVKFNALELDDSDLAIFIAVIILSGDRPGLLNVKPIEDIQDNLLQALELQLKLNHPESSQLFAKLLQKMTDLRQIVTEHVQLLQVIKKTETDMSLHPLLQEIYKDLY
Sequence of Peroxisome proliferator-activated receptor gamma/Nuclear receptor coactivator 3 (Q9Y6Q9 whole entry, further chain): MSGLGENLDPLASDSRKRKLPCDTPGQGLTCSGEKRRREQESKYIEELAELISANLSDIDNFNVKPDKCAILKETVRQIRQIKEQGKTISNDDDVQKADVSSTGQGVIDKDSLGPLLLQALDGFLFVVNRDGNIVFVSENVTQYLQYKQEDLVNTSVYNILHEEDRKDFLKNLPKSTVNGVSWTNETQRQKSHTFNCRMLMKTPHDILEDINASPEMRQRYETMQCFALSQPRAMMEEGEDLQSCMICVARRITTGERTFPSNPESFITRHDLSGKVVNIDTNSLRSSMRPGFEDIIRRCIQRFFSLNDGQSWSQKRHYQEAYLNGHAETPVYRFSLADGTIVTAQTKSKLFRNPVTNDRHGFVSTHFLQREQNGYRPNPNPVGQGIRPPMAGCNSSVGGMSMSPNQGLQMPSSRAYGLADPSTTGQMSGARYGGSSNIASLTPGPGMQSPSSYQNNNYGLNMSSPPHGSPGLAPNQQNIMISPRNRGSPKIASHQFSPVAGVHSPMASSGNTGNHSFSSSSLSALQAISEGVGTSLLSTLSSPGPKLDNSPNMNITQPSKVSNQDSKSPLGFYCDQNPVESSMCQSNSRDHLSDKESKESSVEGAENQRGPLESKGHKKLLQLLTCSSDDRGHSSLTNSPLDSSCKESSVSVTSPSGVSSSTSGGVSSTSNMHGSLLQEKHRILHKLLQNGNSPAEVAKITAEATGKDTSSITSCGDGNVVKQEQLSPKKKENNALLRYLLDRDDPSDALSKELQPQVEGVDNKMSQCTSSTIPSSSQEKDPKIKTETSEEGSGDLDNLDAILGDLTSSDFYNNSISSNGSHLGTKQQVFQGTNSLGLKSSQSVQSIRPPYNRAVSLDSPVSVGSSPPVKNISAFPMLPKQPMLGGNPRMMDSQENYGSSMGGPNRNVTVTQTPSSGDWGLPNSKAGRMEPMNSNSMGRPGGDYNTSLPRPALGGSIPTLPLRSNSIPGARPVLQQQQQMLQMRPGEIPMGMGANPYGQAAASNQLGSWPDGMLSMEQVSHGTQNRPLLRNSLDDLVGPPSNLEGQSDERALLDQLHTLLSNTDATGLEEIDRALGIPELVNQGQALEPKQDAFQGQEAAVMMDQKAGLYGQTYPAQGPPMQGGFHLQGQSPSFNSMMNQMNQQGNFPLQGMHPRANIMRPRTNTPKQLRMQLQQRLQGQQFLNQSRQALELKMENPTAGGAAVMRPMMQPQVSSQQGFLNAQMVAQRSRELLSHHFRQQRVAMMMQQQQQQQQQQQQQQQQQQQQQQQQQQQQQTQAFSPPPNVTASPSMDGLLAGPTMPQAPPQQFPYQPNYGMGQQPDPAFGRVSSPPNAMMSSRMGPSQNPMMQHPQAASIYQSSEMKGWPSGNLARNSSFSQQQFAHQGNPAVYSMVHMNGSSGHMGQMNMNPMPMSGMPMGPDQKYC
Sequence of Peroxisome proliferator-activated receptor gamma/Nuclear receptor coactivator 2 (P37231 whole entry): as the sequence (P37231 whole entry) above
Sequence of Peroxisome proliferator-activated receptor gamma/Nuclear receptor coactivator 2 (Q15596 whole entry, further chain): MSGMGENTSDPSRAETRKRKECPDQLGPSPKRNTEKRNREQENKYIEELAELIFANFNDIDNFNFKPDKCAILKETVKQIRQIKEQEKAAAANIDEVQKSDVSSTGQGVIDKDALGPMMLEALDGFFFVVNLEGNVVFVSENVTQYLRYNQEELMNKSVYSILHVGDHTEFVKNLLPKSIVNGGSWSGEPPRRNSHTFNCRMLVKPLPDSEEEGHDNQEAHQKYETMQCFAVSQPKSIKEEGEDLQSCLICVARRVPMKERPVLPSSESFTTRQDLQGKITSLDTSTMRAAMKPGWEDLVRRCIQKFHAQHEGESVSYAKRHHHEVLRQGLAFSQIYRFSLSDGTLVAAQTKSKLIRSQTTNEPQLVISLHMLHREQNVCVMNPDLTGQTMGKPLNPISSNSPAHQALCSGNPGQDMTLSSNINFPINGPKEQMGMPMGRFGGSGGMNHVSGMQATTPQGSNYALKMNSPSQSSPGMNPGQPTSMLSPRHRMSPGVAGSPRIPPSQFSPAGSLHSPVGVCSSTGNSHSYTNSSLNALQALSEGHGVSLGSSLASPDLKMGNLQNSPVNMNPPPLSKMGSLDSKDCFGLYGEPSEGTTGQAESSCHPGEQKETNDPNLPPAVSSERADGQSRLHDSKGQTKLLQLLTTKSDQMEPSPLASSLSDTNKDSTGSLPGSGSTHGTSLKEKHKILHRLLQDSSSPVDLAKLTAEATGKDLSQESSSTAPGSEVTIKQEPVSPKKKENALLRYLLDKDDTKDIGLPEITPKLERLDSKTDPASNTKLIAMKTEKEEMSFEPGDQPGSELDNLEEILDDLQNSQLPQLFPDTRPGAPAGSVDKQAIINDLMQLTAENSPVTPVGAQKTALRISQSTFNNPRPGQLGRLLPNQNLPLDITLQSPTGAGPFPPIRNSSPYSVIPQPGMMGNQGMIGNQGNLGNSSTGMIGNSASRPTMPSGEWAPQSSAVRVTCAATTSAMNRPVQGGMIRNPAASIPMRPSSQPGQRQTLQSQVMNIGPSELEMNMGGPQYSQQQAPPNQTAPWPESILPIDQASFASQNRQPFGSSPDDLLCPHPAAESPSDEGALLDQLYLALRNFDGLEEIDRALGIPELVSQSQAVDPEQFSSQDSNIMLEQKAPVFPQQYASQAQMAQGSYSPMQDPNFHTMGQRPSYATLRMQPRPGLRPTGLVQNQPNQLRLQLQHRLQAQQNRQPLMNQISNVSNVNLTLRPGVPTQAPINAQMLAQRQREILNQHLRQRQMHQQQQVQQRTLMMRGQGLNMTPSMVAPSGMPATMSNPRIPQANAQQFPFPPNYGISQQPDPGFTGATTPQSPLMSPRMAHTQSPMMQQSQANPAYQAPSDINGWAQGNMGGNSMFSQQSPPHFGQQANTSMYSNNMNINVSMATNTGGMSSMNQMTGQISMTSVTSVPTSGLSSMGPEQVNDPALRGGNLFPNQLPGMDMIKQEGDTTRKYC
Sequence of Cytochrome P450 2C19 (P33261 whole entry): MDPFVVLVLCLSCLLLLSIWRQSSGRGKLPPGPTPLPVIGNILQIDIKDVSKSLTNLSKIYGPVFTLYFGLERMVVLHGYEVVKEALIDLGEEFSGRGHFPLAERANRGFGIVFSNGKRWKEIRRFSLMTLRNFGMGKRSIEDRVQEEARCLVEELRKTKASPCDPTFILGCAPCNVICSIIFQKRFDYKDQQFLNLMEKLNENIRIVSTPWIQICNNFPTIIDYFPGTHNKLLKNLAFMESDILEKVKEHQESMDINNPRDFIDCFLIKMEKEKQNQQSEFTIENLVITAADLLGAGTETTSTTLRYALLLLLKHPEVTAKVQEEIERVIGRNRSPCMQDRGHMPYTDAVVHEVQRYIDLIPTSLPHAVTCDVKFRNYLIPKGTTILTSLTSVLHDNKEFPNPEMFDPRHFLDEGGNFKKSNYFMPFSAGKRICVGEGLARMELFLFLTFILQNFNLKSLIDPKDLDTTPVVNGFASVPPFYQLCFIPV
Sequence of NS3 (A3EZJ3 whole entry): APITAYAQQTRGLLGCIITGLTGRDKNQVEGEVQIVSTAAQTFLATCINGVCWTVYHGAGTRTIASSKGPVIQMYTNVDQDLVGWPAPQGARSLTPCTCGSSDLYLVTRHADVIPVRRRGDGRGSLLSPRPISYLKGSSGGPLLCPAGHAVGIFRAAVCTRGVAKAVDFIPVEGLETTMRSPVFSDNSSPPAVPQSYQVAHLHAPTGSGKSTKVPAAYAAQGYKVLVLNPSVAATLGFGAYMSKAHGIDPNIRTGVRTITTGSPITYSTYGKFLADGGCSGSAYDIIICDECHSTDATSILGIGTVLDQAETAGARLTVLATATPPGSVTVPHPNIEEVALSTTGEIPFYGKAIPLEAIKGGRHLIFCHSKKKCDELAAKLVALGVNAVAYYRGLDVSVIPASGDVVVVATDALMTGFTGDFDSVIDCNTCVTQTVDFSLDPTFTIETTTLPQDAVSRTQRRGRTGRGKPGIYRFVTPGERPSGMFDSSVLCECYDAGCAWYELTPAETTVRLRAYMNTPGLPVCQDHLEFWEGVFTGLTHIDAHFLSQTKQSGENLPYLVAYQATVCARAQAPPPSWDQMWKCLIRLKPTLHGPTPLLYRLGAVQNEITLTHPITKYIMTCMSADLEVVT

## O=C(O)c1cccc2c1NC(c1ccc([N+](=O)[O-])cc1)C1CC=CC21 (stereo not drawn)
Bcl-2-like protein 10
  EC50: 5.41 µM (active)

## O=C(O)c1cccc(-n2c(/C=C/c3ccccc3)nc3ccccc3c2=O)c1
NS3
  IC50: 12.3 µM (not active)

## c1ccc(-c2nc(-c3ccccc3)c(-c3ccccc3)[nH]2)cc1
NADPH oxidase 1
  IC50: > 17 µM (not active)

## COc1ccc2c(c1)Nc1ccccc1S2
NADPH oxidase 1
  IC50: 0.913 µM (active)

## O=C(/C=C/c1ccco1)Nc1cc(Cl)ccc1C(=O)O
[1]
  IC50: 36.7 µM (active)
Leucine aminopeptidase
  IC50: 74.4 µM (active)

## CC(=O)c1cc(NC(=O)c2ccccc2)c(=O)oc1/C=C/N(C)C
[2]
  IC50: > 55.7 µM (not active)
Insulin-degrading enzyme
  IC50: 8.93 µM (active)
Cytochrome P450 2D6
  AC50: 0.178 µM (inconclusive)
Cytochrome P450 2C19
  AC50: 39.8 µM (inconclusive)

## COc1ccc2oc3cc(C)[n+]([O-])c(-c4ccc(Cl)cc4)c3c2c1
[1]
  IC50: > 100 µM (active)

## COC(=O)c1sccc1NC(=O)c1ccc(Br)s1
[3]
  EC50: < 8.82 µM (active)
[4]
  EC50: 8.67 µM (active)
[5]
  EC50: 12.2 µM (not active)

## COc1ccc(C(N)=NOC(=O)CN(C)S(=O)(=O)c2ccc(C)cc2)cc1
[3]
  EC50: > 79.4 µM (not active)
[4]
  EC50: > 79.4 µM (not active)
[5]
  EC50: > 79.4 µM (not active)

## Cc1ccc(S(=O)(=O)N2CCC(=O)N(C(COCc3ccc(C(F)(F)F)cc3)C(C)C)CC2)cc1 (stereo not drawn)
Mucolipin-3
  EC50: 3.92 µM (active)
Ion channel NompC
  EC50: > 29.9 µM (not active)

## Cc1c(C(=O)Nc2nonc2-c2ccc(F)cc2)oc2ccc(F)cc12
Streptokinase A
  EC50: 27.7 µM (active)
[6]
  EC50: 3.52 µM (active)
[7]
  EC50: > 120 µM (not active)
Vero
  CC50: 6.89 µM (active)
[8]
  EC50: > 120 µM (not active)
[9]
  EC50: > 120 µM (not active)
Streptococcus
  EC50: > 150 µM (not active)
[10]
  EC50: 12.9 µM (active)

## O=C1C(=Cc2cn(Cc3ccc(Cl)cc3)c3ccccc23)C(=O)c2ccccc21
Bcl-2-like protein 10
  EC50: 14.4 µM (active)
